# In patent US12349708B2, “Use and methods of 1,3-propanediol to improve taste and/or off-taste qualities” (Primient Covation LLC, priority 2019, dated 2025):
# System: descriptive panel of 8 panelists
# Assay: Descriptive analysis of 5HE, BANG and energy shot prototype drinks with and without bioPDO (Example 6)
# Type: in vivo, human
# Conditions: addition of bioPDO (0.1%)
# Description: A formal sensory testing called descriptive analysis (DA) was performed by 8 trained panelists in triplicate (n=24) on energy shot prototype, BANG prototype samples, and 5HE SHOT prototype samples with & without bioPDO. All samples were served to panelists at ambient temperature 20±2° C.
# A qualified descriptive panel of 8 panelists, experienced in the sensory analysis of a range of products, was used for this research.
# The protocol for descriptive analysis was divided into two distinct phases. 1) During the panel orientation phase, panelists tasted the samples and formulated a lexicon of descriptive taste, mouthfeel, aftertaste and after feel attributes to describe them. A final list of 3 taste, 3 mouthfeel, 3 aftertaste and 1 after feel attributes were determined (Table 37). During the sample testing phase, which took place over 2 separate days, the products were evaluated in triplicate (total evaluations n=24). […]
# Following consumption of the 1st sip, panelists assessed the attribute ‘initial harshness mouthfeel’. The remaining attributes (including ‘harshness mouthfeel’) were then measured by panelists on the 2nd sip. Aftertaste/feel attributes were measured 30 seconds after ingestion of the 2nd sip. […]
# The sensory attributes of the products were scored on unstructured 10 cm line scales labeled at both ends with extremes of each descriptive term. […]
smiles,measurement,value
"OCCCO [PDO, 1,3-propanediol]",overall taste quality of energy shots/drink,significantly improves overall taste quality
